Values joined by “and” are separate entries in the source; they are usually repeats but may differ in a detail not shown here. Equal entries are not always repeated.
What was measured:
Format in all cases: cell-based
[1] = Cytotoxicity assay (CellTiter-Glo, 72 h), MESO-1; details: human, MESO-1 malignant pleural mesothelioma cells, raw replicate data, read-out: MESO1 viability (%)
Method in brief: (§1)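 Following 4 h attachment at 1000 cells/well, the three lines received serially halved compound doses (DMSO 0.5%) for 72 h at 37 °C under 5% CO2, with cell viability then determined by CellTiter-Glo.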

[2] = test system: malignant pleural mesothelioma MESO-1 cells; assay: Cytotoxicity assay (CellTiter-Glo, 72 h), MESO-1; details: raw replicate data
Method in brief: as §1

[3] = Cytotoxicity assay (CellTiter-Glo, 72 h), Jurkat; details: human, Jurkat cells (T lymphoma), raw data (replicates)
Method in brief: as §1

CO[C@@H]1C[C@H](C[C@@H](C)[C@@H]2CC(=O)[C@H](C)/C=C(\C)[C@@H](O)[C@@H](OC)C(=O)[C@H](C)C[C@H](C)/C=C/C=C/C=C(\C)[C@H](O)C[C@@H]3CC[C@@H](C)[C@@](O)(O3)C(=O)C(=O)N3CCCC[C@H]3C(=O)O2)CC[C@H]1O [Compound 17, (16R)-16-O-demethyl rapamycin]
viability at 72 h, 9.53674e-05 uM ([1]; conc 9.53674e-5 uM): 103%
viability at 72 h, 0.000190735 uM ([1]; conc 0.000190735 uM): 89.1%
viability at 72 h, 0.00038147 uM ([1]; conc 0.00038147 uM): 100%
viability at 72 h, 0.000762939 uM ([1]; conc 0.000762939 uM): 97.1%
viability at 72 h, 0.00152588 uM ([1]; conc 0.00152588 uM): 98.3%
viability at 72 h, 0.00305176 uM ([1]; conc 0.00305176 uM): 92.9%
viability at 72 h, 0.00610352 uM ([1]; conc 0.00610352 uM): 89.6%
viability at 72 h, 0.012207 uM ([1]; conc 0.012207 uM): 83.5%
viability at 72 h, 0.0244141 uM ([1]; conc 0.0244141 uM): 86.9%
viability at 72 h, 0.0488281 uM ([1]; conc 0.0488281 uM): 85.1%
viability at 72 h, 0.0976562 uM ([1]; conc 0.0976562 uM): 78.9%
viability at 72 h, 0.195312 uM ([1]; conc 0.195312 uM): 71.5%
viability at 72 h, 0.390625 uM ([1]; conc 0.390625 uM): 79.6%
viability at 72 h, 0.78125 uM ([1]; conc 0.78125 uM): 73.1%
viability at 72 h, 1.5625 uM ([1]; conc 1.5625 uM): 71.7%
viability at 72 h, 3.125 uM ([1]; conc 3.125 uM): 72.9%
viability at 72 h, 6.25 uM ([1]; conc 6.25 uM): 74.2%
viability at 72 h, 12.5 uM ([1]; conc 12.5 uM): 72.1%
viability at 72 h, 25 uM ([1]; conc 25 uM): 67.4%
viability at 72 h, 50 uM ([1]; conc 50 uM): 61.5%
MESO1 viability (%) ([2]; conc 9.53674e-5 uM): 101.2% and 92.1%
MESO1 viability (%) ([2]; conc 0.000190735 uM): 91.6% and 98.7%
MESO1 viability (%) ([2]; conc 0.00038147 uM): 104.8% and 96.5%
MESO1 viability (%) ([2]; conc 0.000762939 uM): 94.3% and 95.5%
MESO1 viability (%) ([2]; conc 0.00152588 uM): 93.6% and 93.5%
MESO1 viability (%) ([2]; conc 0.00305176 uM): 90.4% and 91.1%
MESO1 viability (%) ([2]; conc 0.00610352 uM): 88.7% and 90.9%
MESO1 viability (%) ([2]; conc 0.012207 uM): 91.2%
MESO1 viability (%) ([2]; conc 0.0244141 uM): 80.2% and 88.3%
MESO1 viability (%) ([2]; conc 0.0488281 uM): 80.6% and 75.2%
MESO1 viability (%) ([2]; conc 0.0976562 uM): 77.6% and 79.5%
MESO1 viability (%) ([2]; conc 0.195312 uM): 74.7% and 70.5%
MESO1 viability (%) ([2]; conc 0.390625 uM): 76.8% and 75.4%
MESO1 viability (%) ([2]; conc 0.78125 uM): 70.1% and 72.2%
MESO1 viability (%) ([2]; conc 1.5625 uM): 74.3% and 71.9%
MESO1 viability (%) ([2]; conc 3.125 uM): 66.5% and 67.5%
MESO1 viability (%) ([2]; conc 6.25 uM): 73.9% and 73.5%
MESO1 viability (%) ([2]; conc 12.5 uM): 65.3% and 66.5%
MESO1 viability (%) ([2]; conc 25 uM): 64.8% and 66.6%
MESO1 viability (%) ([2]; conc 50 uM): 62.7% and 65.8%
viability at 72 h, 9.53674e-05 uM ([3]; conc 9.53674e-5 uM): 98.1%
viability at 72 h, 0.000190735 uM ([3]; conc 0.000190735 uM): 101%
viability at 72 h, 0.00038147 uM ([3]; conc 0.00038147 uM): 107%
viability at 72 h, 0.000762939 uM ([3]; conc 0.000762939 uM): 100%
viability at 72 h, 0.00152588 uM ([3]; conc 0.00152588 uM): 106%
viability at 72 h, 0.00305176 uM ([3]; conc 0.00305176 uM): 95.3%
viability at 72 h, 0.00610352 uM ([3]; conc 0.00610352 uM): 96.3%
viability at 72 h, 0.012207 uM ([3]; conc 0.012207 uM): 74.7%
viability at 72 h, 0.0244141 uM ([3]; conc 0.0244141 uM): 79%
viability at 72 h, 0.0488281 uM ([3]; conc 0.0488281 uM): 40%
viability at 72 h, 0.0976562 uM ([3]; conc 0.0976562 uM): 39.6%
viability at 72 h, 0.195312 uM ([3]; conc 0.195312 uM): 36.3%
viability at 72 h, 0.390625 uM ([3]; conc 0.390625 uM): 32.4%
viability at 72 h, 0.78125 uM ([3]; conc 0.78125 uM): 32.4%
viability at 72 h, 1.5625 uM ([3]; conc 1.5625 uM): 29.2%
viability at 72 h, 3.125 uM ([3]; conc 3.125 uM): 28.8%
viability at 72 h, 6.25 uM ([3]; conc 6.25 uM): 28.5%
viability at 72 h, 12.5 uM ([3]; conc 12.5 uM): 30.5%
viability at 72 h, 25 uM ([3]; conc 25 uM): 28.8%
viability at 72 h, 50 uM ([3]; conc 50 uM): 21.6%
